Measurements published in US20260199484A1, “PROTAC DEGRADERS OF MLLT1 AND/OR MLLT3” (DARK BLUE THERAPEUTICS LTD, priority 2024, published 2026).

Biological target: T1, MLLT1 (Homo sapiens, UniProt Q03111)
T1 sequence (Q03111 1-559): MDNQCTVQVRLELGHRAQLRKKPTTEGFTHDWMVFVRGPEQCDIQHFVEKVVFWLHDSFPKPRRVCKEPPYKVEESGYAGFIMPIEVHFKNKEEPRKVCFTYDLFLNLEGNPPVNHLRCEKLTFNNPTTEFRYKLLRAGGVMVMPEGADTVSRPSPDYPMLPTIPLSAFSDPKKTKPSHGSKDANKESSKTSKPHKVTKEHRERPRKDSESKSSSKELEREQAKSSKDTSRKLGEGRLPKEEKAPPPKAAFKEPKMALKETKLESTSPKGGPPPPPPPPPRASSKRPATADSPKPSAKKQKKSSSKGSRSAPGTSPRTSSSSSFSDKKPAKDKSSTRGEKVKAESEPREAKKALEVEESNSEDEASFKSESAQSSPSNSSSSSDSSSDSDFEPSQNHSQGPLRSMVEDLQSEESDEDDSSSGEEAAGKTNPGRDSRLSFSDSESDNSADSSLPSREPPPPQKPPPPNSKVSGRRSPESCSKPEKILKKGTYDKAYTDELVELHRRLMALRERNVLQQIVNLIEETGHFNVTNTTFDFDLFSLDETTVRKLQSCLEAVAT
Assay: MLLT1 degradation assay in MV4-11 cells (JESS, 24 h)
Assay type: cell-based
Set-up: endogenous in cells; host or cells: MV4-11 (ATCC CRL-9591)
Conditions: vs DMSO control
Method: MLLT1 degradation efficacy of compounds was tested in an automated chemiluminescent detection system (JESS, Cat #004-650). MV4-11 (#CRL-9591, ATCC) cells were seeded at a density of 1.2 million cells/well in a non-treated 6-well cell culture plate in 2.4 mL of complete medium (IMDM+10% FBS+1× Penicillin-Streptomycin). 10 mM DMSO stocks were prepared, and cells were treated with three concentrations of test compounds viz. 1000, 100 and 10 nM at a final DMSO concentration of 0.1% and incubated for 24 h at 37° C., 5% CO2. Post incubation, cells were centrifuged, washed with HBSS and lysed in 70 μL of RIPA buffer supplemented with Protease inhibitors (sc-24948; Santa Cruz). Subsequently, protein estimation was done using BCA protein assay kit (23225; Pierce). 4 ug protein lysate (4 uL of 1 ug/uL lysate) was loaded into each well of the JESS cartridge (SM-W001; Bio-techne) and the JESS run was performed using 1:900 dilution of anti-human MLLT1 antibody (14893; Cell signaling technology) and 1:1200 dilution of anti-human GAPDH antibody (2118; Cell signaling technology) with anti-rabbit secondary detection module (DM-001; Bio-Techne). Post run, data were analysed using “Compass for SW” software for chemiluminescent detection. The peak area for each band was used for the calculation of MLLT1 degradation with respect to DMSO control. Data is shown as “MLLT1% degradation”. • Category A: A≥75% degradation • Category B: 50%≤B<75% degradation • Category C: 25%≤C<50% degradation • Category D: D<25% degradation

Row | MLLT1% Degradation @ 0.01 μM | MLLT1% Degradation @ 0.1 μM | MLLT1% Degradation @ 1 μM | SMILES
1 | B (Category B: 50%≤B<75% degradation) | A (Category A: A≥75% degradation) | A (Category A: A≥75% degradation) | Cc1nn(CCCCCCC2CCN(c3cccc(C(=O)N[C@H]4CCC(=O)NC4=O)n3)CC2)c2cc(C(=O)Nc3cc4[nH]c([C@H]5CCCN5C)cc4cn3)ccc12 [Example 73, 1-(6-(1-(6-(((S)-2,6-dioxopiperidin-3-yl)carbamoyl)pyridin-2-yl)piperidin-4-yl)hexyl)-3-methyl-N-(2-((R)-1-methylpyrrolidin-2-yl)-1H-pyrrolo[3,2-c]pyridin-6-yl)-1H-indazole-6-carboxamide]
2 | C (Category C: 25%≤C<50% degradation) | C (Category C: 25%≤C<50% degradation) | A (Category A: A≥75% degradation) | Cc1nn(CCCCN2CCN(c3ccc4c(c3)C(=O)N(C3CCC(=O)NC3=O)C4=O)CC2)c2cc(C(=O)Nc3cc4[nH]c([C@@H]5CCCN5C)cc4cn3)ccc12 (stereo partly drawn) [Example 20, 1-(4-{4-[2-(2,6-dioxopiperidin-3-yl)-1,3-dioxoisoindol-5-yl]piperazin-1-yl}butyl)-3-methyl-N-{2-[(2S)-1-methylpyrrolidin-2-yl]-1H-pyrrolo[3,2-c]pyridin-6-yl}indazole-6-carboxamide]
3 | D (Category D: D<25% degradation) | D (Category D: D<25% degradation) | B (Category B: 50%≤B<75% degradation) | Cc1nn(CCCCCCCCNc2cccc3c2C(=O)N(C2CCC(=O)NC2=O)C3=O)c2cc(C(=O)Nc3cc4[nH]c([C@@H]5CCCN5C)cc4cn3)ccc12 (stereo partly drawn) [Example 4, 1-(8-{[2-(2,6-dioxopiperidin-3-yl)-1,3-dioxoisoindol-4-yl]amino}octyl)-3-methyl-N-{2-[(2S)-1-methylpyrrolidin-2-yl]-1H-pyrrolo[3,2-c]pyridin-6-yl}indazole-6-carboxamide]
4 | D (Category D: D<25% degradation) | B (Category B: 50%≤B<75% degradation) | A (Category A: A≥75% degradation) | Cc1nn(CCCCCC#Cc2cccc(C(=O)NC3CCC(=O)NC3=O)c2F)c2cc(C(=O)Nc3cc4[nH]c([C@H]5CCCN5C)cc4cn3)ccc12 (stereo partly drawn) [Example 34, 1-(7-(3-((2,6-dioxopiperidin-3-yl)carbamoyl)-2-fluorophenyl)hept-6-yn-1-yl)-3-methyl-N-(2-((R)-1-methylpyrrolidin-2-yl)-1H-pyrrolo[3,2-c]pyridin-6-yl)-1H-indazole-6-carboxamide]
5 | C (Category C: 25%≤C<50% degradation) | B (Category B: 50%≤B<75% degradation) | A (Category A: A≥75% degradation) | CN1CCC[C@@H]1c1cc2cnc(NC(=O)c3ccc4c(c3)c(N3CCC(CN5CCN(c6cc7c(cc6F)C(=O)N(C6CCC(=O)NC6=O)C7=O)CC5)CC3)nn4C)cc2[nH]1 (stereo partly drawn) [Example 6, 3-[4-({4-[2-(2,6-dioxopiperidin-3-yl)-6-fluoro-1,3-dioxoisoindol-5-yl]piperazin-1-yl}methyl)piperidin-1-yl]-1-methyl-N-{2-[(2R)-1-methylpyrrolidin-2-yl]-1H-pyrrolo[3,2-c]pyridin-6-yl}indazole-5-carboxamide]
6 | B (Category B: 50%≤B<75% degradation) | A (Category A: A≥75% degradation) | A (Category A: A≥75% degradation) | Cc1nn(CC2CCN(c3cccc4c3CN(C3CCC(=O)NC3=O)C4=O)CC2)c2cc(C(=O)Nc3cc4[nH]c([C@H]5CCCN5C)cc4cn3)ccc12 (stereo in doubt) [Example 108, 1-((1-(2-((rel-R)-2,6-dioxopiperidin-3-yl)-1-oxoisoindolin-4-yl)piperidin-4-yl)methyl)-3-methyl-N-(2-((R)-1-methylpyrrolidin-2-yl)-1H-pyrrolo[3,2-c]pyridin-6-yl)-1H-indazole-6-carboxamide]
7 | D (Category D: D<25% degradation) | B (Category B: 50%≤B<75% degradation) | A (Category A: A≥75% degradation) | Cc1nn(CCCCCCCC#Cc2cccc(N3CCC(=O)NC3=O)c2F)c2cc(C(=O)Nc3cc4[nH]c([C@H]5CCCN5C)cc4cn3)ccc12 [Example 63, (R)-1-(9-(3-(2,4-dioxotetrahydropyrimidin-1 (2H)-yl)-2-fluorophenyl)non-8-yn-1-yl)-3-methyl-N-(2-(1-methylpyrrolidin-2-yl)-1H-pyrrolo [3,2-c]pyridin-6-yl)-1H-indazole-6-carboxamide]
8 | A (Category A: A≥75% degradation) | A (Category A: A≥75% degradation) | A (Category A: A≥75% degradation) | Cc1nn(CCCCCOCC#Cc2cccc3c2CN(C2CCC(=O)NC2=O)C3=O)c2cc(C(=O)Nc3cc4[nH]c([C@H]5CCCN5C)cc4cn3)ccc12 (stereo partly drawn) [Example 49, 1-(5-((3-(2-(2,6-dioxopiperidin-3-yl)-1-oxoisoindolin-4-yl)prop-2-yn-1-yl)oxy)pentyl)-3-methyl-N-(2-((R)-1-methylpyrrolidin-2-yl)-1H-pyrrolo[3,2-c]pyridin-6-yl)-1H-indazole-6-carboxamide]
9 | C (Category C: 25%≤C<50% degradation) | B (Category B: 50%≤B<75% degradation) | A (Category A: A≥75% degradation) | Cc1nn(CCCCCCCC#Cc2cccc(C(=O)N[C@H]3CCC(=O)NC3=O)c2F)c2cc(C(=O)Nc3cc4[nH]c([C@H]5CCCN5C)cc4cn3)ccc12 [Example 51, 1-(9-(3-(((S)-2,6-dioxopiperidin-3-yl)carbamoyl)-2-fluorophenyl)non-8-yn-1-yl)-3-methyl-N-(2-((R)-1-methylpyrrolidin-2-yl)-1H-pyrrolo[3,2-c]pyridin-6-yl)-1H-indazole-6-carboxamide]
10 | – | C (Category C: 25%≤C<50% degradation) | C (Category C: 25%≤C<50% degradation) | Cc1nn(CCCC2CCN(c3ccc(C(=O)NC4CCC(=O)NC4=O)cc3F)CC2)c2cc(C(=O)Nc3cc4[nH]c([C@H]5CCCN5C)cc4cn3)ccc12 (stereo partly drawn) [Example 28, 1-(3-(1-(4-((2,6-dioxopiperidin-3-yl)carbamoyl)-2-fluorophenyl)piperidin-4-yl)propyl)-3-methyl-N-(2-((R)-1-methylpyrrolidin-2-yl)-1H-pyrrolo[3,2-c]pyridin-6-yl)-1H-indazole-6-carboxamide]
11 | C (Category C: 25%≤C<50% degradation) | B (Category B: 50%≤B<75% degradation) | A (Category A: A≥75% degradation) | Cc1nn(CCCCCCCC#Cc2cc3c(cc2F)c(N2CCC(=O)NC2=O)nn3C)c2cc(C(=O)Nc3cc4[nH]c([C@H]5CCCN5C)cc4cn3)ccc12 [Example 65, (R)-1-(9-(3-(2,4-dioxotetrahydropyrimidin-1 (2H)-yl)-5-fluoro-1-methyl-1H-indazol-6-yl)non-8-yn-1-yl)-3-methyl-N-(2-(1-methylpyrrolidin-2-yl)-1H-pyrrolo[3,2-c]pyridin-6-yl)-1H-indazole-6-carboxamide]
